Like-named read-outs stand apart in the source and are kept apart here. Where no end group is shown, it is not given here.

The subject of data set [1] is C. difficile strain 630Δerm. Type of data set: cell-based, Clostridium difficile. To be noted: for Effect on biofilm (disassembly): 3 μM D-tyrosine, 2 mM D-methionine, 5 mM D-tryptophan, 8.5 mM D-leucine, mixture 2.5 nM each (FIG. 12).
Data set [2] relates to C. difficile strain R20291. Type of data set: cell-based, Clostridium difficile.
Data set [3] has as its system B. subtilis biofilms. To be noted: cited from earlier work.
Data set [4] relates to S. aureus. Particulars: cited from earlier work; for Biofilm disassembly: 10 μM, 100 μM and 500 μM.
In data set [5] the test system is 630Δerm C. difficile biofilms. Put plainly: DNase treatment of biofilms visualised by confocal microscopy. It counts as cell-based, Clostridium difficile. To be noted: for Degradation of the biofilm (confocal microscopy): 15 minutes. As for the experimental part: The untreated controls were incubated for 15 minutes with 0.15 M NaCl and washed with 1×PBS. These coverslips were mounted onto glass slides, a coverslip was applied over a 50% glycerol mounting media and these were sealed with clear nail varnish. The slides were visualised under oil immersion using a ×40 objective using a laser confocal microscope (Zeiss microscope).

Data set [6] relates to C. difficile strain 630Δerm. Kind of data set: Inhibition of biofilm formation in TC flasks.
Data set [7] concerns C. difficile R20291 biofilm. Kind of data set: DNase, RNase and proteinase K digests of biofilm in liquid culture. Particulars: 15 minutes.
Data set [8] has as its system C. difficile 630Δerm biofilm. Kind of data set: DNase, RNase and proteinase K digests of biofilm (floc) in liquid culture. Particulars: 15 minute treatment, room temperature.
Where [9] appears, read: 3 μM D-tyrosine, 2 mM D-methionine, 5 mM D-tryptophan, 8.5 mM D-leucine, mixture 2.5 nM each.
Where [10] appears, read: 10 μg/ml added prior to inoculation, 6 day incubation, static and shaking.

`CSCC[C@@H](N)C(=O)O` [D-methionine]: the “Effect on biofilm (disassembly)” value in data set [1] and in data set [2] was “no significant effect” each time. Also, the Biofilm disassembly entry in data set [3] (setting [9]) is “disassembled”.

As for `N[C@H](Cc1ccc(O)cc1)C(=O)O` [D-tyrosine], the “Effect on biofilm (disassembly)” value in data set [1] and in data set [2] was “no significant effect” each time. The Biofilm disassembly entry in data set [3] (setting [9]) and in data set [4] was “disassembled” in each case.

DNase: the “Degradation of the biofilm (confocal microscopy)” value in data set [5] (1 ug DNase) and in data set [5] (10 ug DNase) was “incomplete degradation” in each case. Also, the “Degradation of the biofilms (confocal microscopy)” value in data set [5] (DNase for 15 minutes, BHIS and YP media, compared to untreated controls) is “biofilms were absent”. Besides, the “Bacterial growth (turbidity of media)” value in data set [6] (setting [10]) was “turbid, indicating bacterial growth”. The “Biofilm formation (flocs or aggregates)” value in data set [6] (setting [10]) is reported as “no flocs or aggregates were observed”. The “Formation of biofilm in liquid media” value in data set [6] (10 mg/ml in the growth media, incubated statically for six days (FIG. 9)) is on record as “inhibits the formation of biofilm”. The “Degradation of the biofilm” value in data set [7] (1 mg/ml) and in data set [7] was “degradation of the biofilm observed” throughout. In addition, the “Degradation of the biofilm (floc produced in static culture)” value in data set [8] (100 ug/ml) and in data set [8] (1 mg/ml) was “Degradation of the biofilm was observed” in each case.

In the case of `CC(C)C[C@@H](N)C(=O)O` [D-leucine], in data set [1], the “Effect on biofilm formation” value is reported as “ineffective”, the “Growth of the bacteria” value was “inhibited” and the “Effect on biofilm (disassembly)” value was “no significant effect”. In data set [2], the “Effect on biofilm (disassembly)” value is listed as “no significant effect”, the “Effect on biofilm formation” value was “ineffective” and the “Growth of the bacteria” value is recorded as “reduced”. In addition, in data set [3] (setting [9]), the Biofilm disassembly result was “disassembled”.

On to `O=C(O)[C@H]1CCCN1` [D-proline], for which the Biofilm disassembly entry in data set [4] is recorded as “disassembled”.

For the molecule `NCCCNCCCN` [norspermidine], in data set [1], the Biofilm level entry is reported as “significantly reduced”, the “Disassembly of biofilm performed in tissue culture flasks” value is “not disrupted”, the Disassembly of biofilms entry is “does not disassemble biofilms” and the Viability entry was “slight decrease in viability”. In data set [2], the “Biofilm formation on addition to biofilm cultures” value was “enhances the biofilm formation” and the Disassembly of biofilms result is on record as “does not disassemble biofilms”. The Biofilm disassembly entry in data set [3] (norspermidine at 100, 50 and 25 μM) is “disassemble biofilms”.

As for “Human beta-defensin 3: cationic peptide shown to inhibit biofilm formation in S. aureus (GIINTLQKYYCRVRGGRCAVLSCLPKEEQIGKCSTRGRKCCRRKK; ends and bridges not checked; cysteine pairing not given here; UniProt P81534 23-67, looked up)”, in data set [4], the “Inhibition of biofilm formation” value is listed as “inhibit biofilm formation”.

As for `N[C@H](Cc1c[nH]c2ccccc12)C(=O)O` [D-tryptophan], in data set [1], the Biofilm formation entry is “increased the biofilm formation”, the Disruption of biofilms result is given as “not disrupted” and the “Effect on biofilm (disassembly)” value is reported as “no significant effect”. Also, in data set [2], the Biofilm formation result is “increased the biofilm formation”, the Disruption of biofilms result is on record as “not disrupted” and the “Effect on biofilm (disassembly)” value is given as “no significant effect”. The Biofilm disassembly entry in data set [3] (setting [9]) was “disassembled”.

For `N[C@H](Cc1ccccc1)C(=O)O` [D-phenylalanine], the Biofilm disassembly result in data set [4] was “disassembled”.
